The record followed here is patent US6541450B1, “Parathyroid hormone analogues for the treatment of osteoporosis” (National Research Council of Canada, priority 1994, dated 2003).

The target of assay [1] is T1, adenylyl cyclase, ROS 17/2 cells (Rattus norvegicus, UniProt P25961).
T1 sequence (P25961 27-591): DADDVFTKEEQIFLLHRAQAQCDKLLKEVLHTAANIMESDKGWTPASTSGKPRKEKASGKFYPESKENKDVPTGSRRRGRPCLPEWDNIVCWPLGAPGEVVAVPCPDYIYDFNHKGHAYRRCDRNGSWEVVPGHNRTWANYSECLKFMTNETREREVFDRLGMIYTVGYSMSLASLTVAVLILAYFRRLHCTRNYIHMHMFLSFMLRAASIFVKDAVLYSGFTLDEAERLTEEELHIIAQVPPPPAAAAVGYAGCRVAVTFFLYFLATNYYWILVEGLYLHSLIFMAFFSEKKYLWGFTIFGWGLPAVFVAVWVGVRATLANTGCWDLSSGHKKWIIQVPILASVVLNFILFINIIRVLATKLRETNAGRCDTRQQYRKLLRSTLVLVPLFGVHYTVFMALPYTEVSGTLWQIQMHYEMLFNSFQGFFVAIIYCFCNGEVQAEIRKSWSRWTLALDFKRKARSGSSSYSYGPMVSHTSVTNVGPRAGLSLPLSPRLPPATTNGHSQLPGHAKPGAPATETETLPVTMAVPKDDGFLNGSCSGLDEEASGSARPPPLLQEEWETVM
The assay is described as follows: Adenylyl cyclase stimulation, [3H]-cyclic AMP production in ROS 17/2 cells. The format is cell-based.

In assay [2] the test system is anesthetized female Sprague-Dawley rats. The assay is described as follows: Hypotensive effect, tail artery pressure in anaesthetized rats. Particulars: subcutaneous injection.
Method: Female Sprague-Dawley rats (weighing over 290 g) were anaesthetized with intraperitoneally injected sodium pentobarbital (65 mg/kg body weight). Rectal temperature was monitored with a YS1402 thermistor (Yellow Springs Instrument Co., Inc. Yellow Springs, Ohio) and maintained between 36.0 and 38.5° C. throughout the experiment. Ear pinna temperature was also monitored using a YSi banjo thermistor. The tail artery was exposed to cannulated with a Jelco 25-gIV catheter (Johnson and Johnson Medical Inc., Arlington, Tex.) and connected to a Statham pressure transducer, the signals from which were recorded digitally with a Biopac Systems MP100 Monitor (Harvard Instruments, Saint Laurent, QC, Canada). For intravenous injection of PTH or one of its fragments, a femoral vein was also exposed. After surgery, the rat was allowed to stabilize for 8 min after which PTH or one of its fragments (dissolved in acidified saline containing 0.001 N HCl) was injected into the femoral vein or under the skin of the abdomen. Data were collected for 12 min after intravenous injection or for 22 min after subcutaneous injection.
[3] abbreviates: ROS 17/2 cells, concentration for half-maximal increase in AC activity, read-out: Adenylyl Cyclase (EC50).

For orientation: EC50 means the midpoint of the concentration-response curve.

Read-outs that look alike come from different tables or passages of the source. Where a SMILES comes first, the peptide text is derived from it. Bridges are numbered along the chain shown (N, C = ends). [ ]: non-standard residue; d: D form. Nle = CCCC[C@H](N)C(=O)O

For the compound `CC[C@H](C)[C@H](NC(=O)[C@H](CCC(=O)O)NC(=O)[C@H](CO)NC(=O)[C@@H](NC(=O)[C@@H](N)CO)C(C)C)C(=O)N[C@@H](CCC(N)=O)C(=O)N[C@@H](CC(C)C)C(=O)N[C@@H](CCSC)C(=O)N[C@@H](Cc1c[nH]cn1)C(=O)N[C@@H](CC(N)=O)C(=O)N[C@@H](CC(C)C)C(=O)NCC(=O)N[C@@H](CCCCN)C(=O)N[C@@H](Cc1c[nH]cn1)C(=O)N[C@@H](CC(C)C)C(=O)N[C@@H](CC(N)=O)C(=O)N[C@@H](CO)C(=O)N[C@@H](CCSC)C(=O)N[C@@H](CCC(=O)O)C(=O)N[C@@H](CCCNC(=N)N)C(=O)N[C@H](C(=O)N[C@H]1CCC(=O)NCCCC[C@@H](C(=O)N[C@@H](CC(C)C)C(=O)N[C@@H](CC(C)C)C(=O)N[C@@H](CCC(N)=O)C(=O)N[C@@H](CC(=O)O)C(=O)N[C@H](C(=O)N[C@@H](Cc2c[nH]cn2)C(=O)N[C@@H](CC(N)=O)C(=O)N[C@@H](Cc2ccccc2)C(=O)O)C(C)C)NC(=O)[C@H](CCCNC(=N)N)NC(=O)[C@H](CC(C)C)NC(=O)[C@H](Cc2c[nH]c3ccccc23)NC1=O)C(C)C` [[Leu^27]cyclo(Glu^22—Lys^26)—hPTH—(1-34)-OH] (H-SVSEIQLMHNLGKHLNSMERVEWLRKLLQDVHNF-OH; lactam 22-26; N-terminus assumed), the EC50 in assay [1] (setting [3]) was 6 nM.

In the case of `CCCC[C@H](NC(=O)[C@H](CO)NC(=O)[C@H](CC(N)=O)NC(=O)[C@H](CC(C)C)NC(=O)[C@H](Cc1c[nH]cn1)NC(=O)[C@H](CCCCN)NC(=O)CNC(=O)[C@H](CC(C)C)NC(=O)[C@H](CC(N)=O)NC(=O)[C@H](Cc1c[nH]cn1)NC(=O)[C@H](CCCC)NC(=O)[C@H](CC(C)C)NC(=O)[C@H](CCC(N)=O)NC(=O)[C@@H](NC(=O)[C@H](CCC(=O)O)NC(=O)[C@H](CO)NC(=O)[C@@H](NC(=O)[C@@H](N)CO)C(C)C)[C@@H](C)CC)C(=O)N[C@@H](CCC(=O)O)C(=O)N[C@@H](CCCNC(=N)N)C(=O)N[C@H](C(=O)N[C@H]1CCC(=O)NCCCC[C@@H](C(=O)N[C@@H](CC(C)C)C(=O)N[C@@H](CC(C)C)C(=O)N[C@@H](CCC(N)=O)C(=O)N[C@@H](CC(=O)O)C(=O)N[C@H](C(N)=O)C(C)C)NC(=O)[C@H](CCCNC(=N)N)NC(=O)[C@H](CC(C)C)NC(=O)[C@H](Cc2c[nH]c3ccccc23)NC1=O)C(C)C` [[Nle^8.18, Leu^27]cyclo(Glu^22—Lys^26)—hPTH—(1-31)-NH2] (H-SVSEIQL[Nle]HNLGKHLNS[Nle]ERVEWLRKLLQDV-NH2; lactam 22-26; N-terminus assumed), the concentration for a half-maximal effect (EC50) in assay [1] (setting [3]) was determined as 6 nM.

As for `CCCC[C@H](NC(=O)[C@@H]1CCCCNC(=O)CC[C@H](NC(=O)[C@@H](NC(=O)[C@H](CCCNC(=N)N)NC(=O)[C@H](CCC(=O)O)NC(=O)[C@H](CCSC)NC(=O)[C@H](CO)NC(=O)[C@H](CC(N)=O)NC(=O)[C@H](CC(C)C)NC(=O)[C@H](Cc2c[nH]cn2)NC(=O)[C@H](CCCCN)NC(=O)CNC(=O)[C@H](CC(C)C)NC(=O)[C@H](CC(N)=O)NC(=O)[C@H](Cc2c[nH]cn2)NC(=O)[C@H](CCSC)NC(=O)[C@H](CC(C)C)NC(=O)[C@H](CCC(N)=O)NC(=O)[C@@H](NC(=O)[C@H](CCC(=O)O)NC(=O)[C@H](CO)NC(=O)[C@@H](NC(=O)[C@@H](N)CO)C(C)C)[C@@H](C)CC)C(C)C)C(=O)N[C@@H](Cc2c[nH]c3ccccc23)C(=O)N[C@@H](CC(C)C)C(=O)N[C@@H](CCCNC(=N)N)C(=O)N1)C(=O)N[C@@H](CC(C)C)C(=O)N[C@@H](CCC(N)=O)C(=O)N[C@@H](CC(=O)O)C(=O)N[C@H](C(N)=O)C(C)C` [[Nle^27]cyclo(Glu^22—Lys^26)—hPTH—(1-31)-NH2] (H-SVSEIQLMHNLGKHLNSMERVEWLRK[Nle]LQDV-NH2; lactam 22-26), the EC50 in assay [1] (setting [3]) worked out at 9 nM.

`CC[C@H](C)[C@H](NC(=O)[C@H](CCC(=O)O)NC(=O)[C@H](CO)NC(=O)[C@@H](NC(=O)[C@@H](N)CO)C(C)C)C(=O)N[C@@H](CCC(N)=O)C(=O)N[C@@H](CC(C)C)C(=O)N[C@@H](CCSC)C(=O)N[C@@H](Cc1c[nH]cn1)C(=O)N[C@@H](CC(N)=O)C(=O)N[C@@H](CC(C)C)C(=O)NCC(=O)N[C@@H](CCCCN)C(=O)N[C@@H](Cc1c[nH]cn1)C(=O)N[C@@H](CC(C)C)C(=O)N[C@@H](CC(N)=O)C(=O)N[C@@H](CO)C(=O)N[C@@H](CCSC)C(=O)N[C@@H](CCC(=O)O)C(=O)N[C@@H](CCCNC(=N)N)C(=O)N[C@H](C(=O)N[C@H]1CCC(=O)NCCCC[C@@H](C(=O)N[C@@H](Cc2ccc(O)cc2)C(=O)N[C@@H](CC(C)C)C(=O)N[C@@H](CCC(N)=O)C(=O)N[C@@H](CC(=O)O)C(=O)N[C@H](C(N)=O)C(C)C)NC(=O)[C@H](CCCNC(=N)N)NC(=O)[C@H](CC(C)C)NC(=O)[C@H](Cc2c[nH]c3ccccc23)NC1=O)C(C)C` [[Tyr^27]cyclo(Glu^22—Lys^26)—hPTH—(1-31)-NH2] (H-SVSEIQLMHNLGKHLNSMERVEWLRKYLQDV-NH2; lactam 22-26; N-terminus assumed): in assay [1] (setting [3]), the EC50 is 9 nM.

Turning to `CC[C@H](C)[C@H](NC(=O)[C@H](CCC(=O)O)NC(=O)[C@H](CO)NC(=O)[C@@H](NC(=O)[C@@H](N)CO)C(C)C)C(=O)N[C@@H](CCC(N)=O)C(=O)N[C@@H](CC(C)C)C(=O)N[C@@H](CCSC)C(=O)N[C@@H](Cc1c[nH]cn1)C(=O)N[C@@H](CC(N)=O)C(=O)N[C@@H](CC(C)C)C(=O)NCC(=O)N[C@@H](CCCCN)C(=O)N[C@@H](Cc1c[nH]cn1)C(=O)N[C@@H](CC(C)C)C(=O)N[C@@H](CC(N)=O)C(=O)N[C@@H](CO)C(=O)N[C@@H](CCSC)C(=O)N[C@@H](CCC(=O)O)C(=O)N[C@@H](CCCNC(=N)N)C(=O)N[C@H](C(=O)N[C@@H](CCC(=O)O)C(=O)N[C@@H](Cc1c[nH]c2ccccc12)C(=O)N[C@@H](CC(C)C)C(=O)N[C@@H](CCCNC(=N)N)C(=O)N[C@H]1CCCCNC(=O)C[C@@H](C(=O)N[C@H](C(N)=O)C(C)C)NC(=O)[C@H](CCC(N)=O)NC(=O)[C@H](CC(C)C)NC(=O)[C@H](CC(C)C)NC1=O)C(C)C` [compound 4, [Leu^27]cyclo(Lys^26-Asp^30)-hPTH-(1-31)-NH2] (H-SVSEIQLMHNLGKHLNSMERVEWLRKLLQDV-NH2; lactam 26-30; N-terminus assumed), the EC50 is 3 nM in assay [1] (setting [3]) and 17 ± 3.3 nM in assay [1] (ROS cell line, read-out: EC50, AC-stimulating activity). In assay [2], the “hypotensive action, in words” value is “enhanced hypotensive effects”.

`CC[C@H](C)[C@H](NC(=O)[C@H](CCC(=O)O)NC(=O)[C@H](CO)NC(=O)[C@@H](NC(=O)[C@@H](N)CO)C(C)C)C(=O)N[C@@H](CCC(N)=O)C(=O)N[C@@H](CC(C)C)C(=O)N[C@@H](CCSC)C(=O)N[C@@H](Cc1c[nH]cn1)C(=O)N[C@@H](CC(N)=O)C(=O)N[C@@H](CC(C)C)C(=O)NCC(=O)N[C@@H](CCCCN)C(=O)N[C@@H](Cc1c[nH]cn1)C(=O)N[C@@H](CC(C)C)C(=O)N[C@@H](CC(N)=O)C(=O)N[C@@H](CO)C(=O)N[C@@H](CCSC)C(=O)N[C@@H](CCC(=O)O)C(=O)N[C@@H](CCCNC(=N)N)C(=O)N[C@H](C(=O)N[C@H]1CCC(=O)NCCCC[C@@H](C(=O)N[C@@H](CCCCN)C(=O)N[C@@H](CC(C)C)C(=O)N[C@@H](CCC(N)=O)C(=O)N[C@@H](CC(=O)O)C(=O)N[C@H](C(N)=O)C(C)C)NC(=O)[C@H](CCCNC(=N)N)NC(=O)[C@H](CC(C)C)NC(=O)[C@H](Cc2c[nH]c3ccccc23)NC1=O)C(C)C` [cyclo(Glu^22—Lys^26)—hPTH—(1-31)-NH2]: the EC50 in assay [1] (setting [3]) stood at 17 nM.

Take `CC[C@H](C)[C@H](NC(=O)[C@H](CCC(=O)O)NC(=O)[C@H](CO)NC(=O)[C@@H](NC(=O)[C@H](CO)NC(C)=O)C(C)C)C(=O)N[C@@H](CCC(N)=O)C(=O)N[C@@H](CC(C)C)C(=O)N[C@@H](CCSC)C(=O)N[C@@H](Cc1c[nH]cn1)C(=O)N[C@@H](CC(N)=O)C(=O)N[C@@H](CC(C)C)C(=O)NCC(=O)N[C@@H](CCCCN)C(=O)N[C@@H](Cc1c[nH]cn1)C(=O)N[C@@H](CC(C)C)C(=O)N[C@@H](CC(N)=O)C(=O)N[C@@H](CO)C(=O)N[C@@H](CCSC)C(=O)N[C@@H](CCC(=O)O)C(=O)N[C@@H](CCCNC(=N)N)C(=O)N[C@H](C(=O)N[C@H]1CCC(=O)NCCCC[C@@H](C(=O)N[C@@H](CC(C)C)C(=O)N[C@@H](CC(C)C)C(=O)N[C@@H](CCC(N)=O)C(=O)N[C@@H](CC(=O)O)C(=O)N[C@H](C(N)=O)C(C)C)NC(=O)[C@H](CCCNC(=N)N)NC(=O)[C@H](CC(C)C)NC(=O)[C@H](Cc2c[nH]c3ccccc23)NC1=O)C(C)C` [α-acetyl-[Leu^27]cyclo(Glu^22—Lys^26)—hPTH—(1-31)-NH2] (Ac-SVSEIQLMHNLGKHLNSMERVEWLRKLLQDV-NH2; lactam 22-26): the EC50 in assay [1] (setting [3]) came to 24 nM.
